Experiment: wn = mass fraction of the nth substance listed
Conditions: Liquid, Vibrating tube method

CC(C)(N)CO [2-amino-2-methylpropan-1-ol] + O
Conditions | mass density [kg/m3]
333.05 K, 14990 kPa, w1 = 0.4002 | 976.2
333.05 K, 15984 kPa, w1 = 0.4002 | 976.6
333.05 K, 16990 kPa, w1 = 0.4002 | 977
333.05 K, 18003 kPa, w1 = 0.4002 | 977.4
333.05 K, 18986 kPa, w1 = 0.4002 | 977.8
333.05 K, 19988 kPa, w1 = 0.4002 | 978.2
333.05 K, 21502 kPa, w1 = 0.4002 | 978.8
342.91 K, 1020 kPa, w1 = 0.2821 | 969
342.91 K, 2011 kPa, w1 = 0.2821 | 969.5
342.91 K, 3009 kPa, w1 = 0.2821 | 969.9
342.91 K, 4010 kPa, w1 = 0.2821 | 970.3
342.91 K, 4994 kPa, w1 = 0.2821 | 970.8
342.91 K, 5994 kPa, w1 = 0.2821 | 971.2
342.91 K, 7035 kPa, w1 = 0.2821 | 971.6
342.91 K, 7995 kPa, w1 = 0.2821 | 972
342.91 K, 8990 kPa, w1 = 0.2821 | 972.4
342.91 K, 9998 kPa, w1 = 0.2821 | 972.9
342.91 K, 10992 kPa, w1 = 0.2821 | 973.3
342.91 K, 11994 kPa, w1 = 0.2821 | 973.7
342.91 K, 12992 kPa, w1 = 0.2821 | 974.1
342.91 K, 13990 kPa, w1 = 0.2821 | 974.5
342.91 K, 14992 kPa, w1 = 0.2821 | 974.9
342.91 K, 15993 kPa, w1 = 0.2821 | 975.4
342.91 K, 16987 kPa, w1 = 0.2821 | 975.8
342.91 K, 17985 kPa, w1 = 0.2821 | 976.2
342.91 K, 18987 kPa, w1 = 0.2821 | 976.6
342.91 K, 19984 kPa, w1 = 0.2821 | 977
342.91 K, 20986 kPa, w1 = 0.2821 | 977.4
342.92 K, 509 kPa, w1 = 0.1997 | 971.6
342.92 K, 1001 kPa, w1 = 0.1997 | 971.8
342.92 K, 1008 kPa, w1 = 0.4976 | 953.4
342.92 K, 2000 kPa, w1 = 0.1997 | 972.2
342.92 K, 2004 kPa, w1 = 0.4976 | 953.8
342.92 K, 3000 kPa, w1 = 0.1997 | 972.7
342.92 K, 3006 kPa, w1 = 0.4976 | 954.3
342.92 K, 4000 kPa, w1 = 0.1997 | 973.1
342.92 K, 4000 kPa, w1 = 0.4976 | 954.8
342.92 K, 4997 kPa, w1 = 0.4976 | 955.3
342.92 K, 5000 kPa, w1 = 0.1997 | 973.6
342.92 K, 5996 kPa, w1 = 0.4976 | 955.7
342.92 K, 6000 kPa, w1 = 0.1997 | 974
342.92 K, 6996 kPa, w1 = 0.4976 | 956.2
342.92 K, 7001 kPa, w1 = 0.1997 | 974.4
342.92 K, 7993 kPa, w1 = 0.4976 | 956.7
342.92 K, 8000 kPa, w1 = 0.1997 | 974.8
342.92 K, 8988 kPa, w1 = 0.4976 | 957.2
342.92 K, 9009 kPa, w1 = 0.1997 | 975.2
342.92 K, 9983 kPa, w1 = 0.4976 | 957.6
342.92 K, 10002 kPa, w1 = 0.1997 | 975.6
342.92 K, 10990 kPa, w1 = 0.4976 | 958.1
342.92 K, 11001 kPa, w1 = 0.1997 | 976
342.92 K, 12000 kPa, w1 = 0.1997 | 976.5
342.92 K, 12003 kPa, w1 = 0.4976 | 958.5
342.92 K, 12992 kPa, w1 = 0.4976 | 958.9
342.92 K, 13000 kPa, w1 = 0.1997 | 976.9
342.92 K, 13996 kPa, w1 = 0.4976 | 959.4
342.92 K, 14000 kPa, w1 = 0.1997 | 977.3
342.92 K, 14988 kPa, w1 = 0.4976 | 959.9
342.92 K, 15002 kPa, w1 = 0.1997 | 977.7
342.92 K, 15995 kPa, w1 = 0.4976 | 960.3
342.92 K, 16002 kPa, w1 = 0.1997 | 978.2
342.92 K, 16984 kPa, w1 = 0.4976 | 960.8
342.92 K, 17001 kPa, w1 = 0.1997 | 978.6
342.92 K, 17995 kPa, w1 = 0.4976 | 961.2
342.92 K, 18002 kPa, w1 = 0.1997 | 979
342.92 K, 18994 kPa, w1 = 0.4976 | 961.7
342.92 K, 18999 kPa, w1 = 0.1997 | 979.2
342.92 K, 19993 kPa, w1 = 0.4976 | 962.1
342.92 K, 20029 kPa, w1 = 0.1997 | 979.8
342.92 K, 21004 kPa, w1 = 0.1997 | 980.2
342.92 K, 21021 kPa, w1 = 0.4976 | 962.5
342.92 K, 22004 kPa, w1 = 0.1997 | 980.6
342.92 K, 23001 kPa, w1 = 0.1997 | 981
342.92 K, 24005 kPa, w1 = 0.1997 | 981.5
342.93 K, 1004 kPa, w1 = 0.4002 | 962.4
342.93 K, 2006 kPa, w1 = 0.4002 | 962.8
342.93 K, 3009 kPa, w1 = 0.4002 | 963.3
342.93 K, 4013 kPa, w1 = 0.4002 | 963.7
342.93 K, 4998 kPa, w1 = 0.4002 | 964.2
342.93 K, 5995 kPa, w1 = 0.4002 | 964.6
342.93 K, 6996 kPa, w1 = 0.4002 | 965
342.93 K, 7995 kPa, w1 = 0.4002 | 965.5
342.93 K, 8994 kPa, w1 = 0.4002 | 965.9
342.93 K, 10004 kPa, w1 = 0.4002 | 966.3
342.93 K, 10993 kPa, w1 = 0.4002 | 966.8
342.93 K, 12000 kPa, w1 = 0.4002 | 967.2
342.93 K, 12990 kPa, w1 = 0.4002 | 967.6
342.93 K, 13993 kPa, w1 = 0.4002 | 968
342.93 K, 14985 kPa, w1 = 0.4002 | 968.5
342.93 K, 15999 kPa, w1 = 0.4002 | 968.9
342.93 K, 16987 kPa, w1 = 0.4002 | 969.3
342.93 K, 17994 kPa, w1 = 0.4002 | 969.8
342.93 K, 18984 kPa, w1 = 0.4002 | 970.2
342.93 K, 19987 kPa, w1 = 0.4002 | 970.6
342.93 K, 20996 kPa, w1 = 0.4002 | 971
352.84 K, 1007 kPa, w1 = 0.4002 | 954.4
352.84 K, 2012 kPa, w1 = 0.4002 | 954.9
352.84 K, 3000 kPa, w1 = 0.4002 | 955.3
352.84 K, 4011 kPa, w1 = 0.4002 | 955.8
352.84 K, 5007 kPa, w1 = 0.4002 | 956.3
352.84 K, 6009 kPa, w1 = 0.4002 | 956.7
352.84 K, 7008 kPa, w1 = 0.4002 | 957.2
352.84 K, 8014 kPa, w1 = 0.4002 | 957.6
352.84 K, 8988 kPa, w1 = 0.4002 | 958.1
352.84 K, 9986 kPa, w1 = 0.4002 | 958.5
352.84 K, 11001 kPa, w1 = 0.4002 | 959
352.84 K, 12004 kPa, w1 = 0.4002 | 959.5
352.84 K, 12991 kPa, w1 = 0.4002 | 959.8
352.84 K, 13986 kPa, w1 = 0.4002 | 960.3
352.84 K, 14991 kPa, w1 = 0.4002 | 960.8
352.84 K, 15997 kPa, w1 = 0.4002 | 961.2
352.84 K, 16988 kPa, w1 = 0.4002 | 961.6
352.84 K, 17995 kPa, w1 = 0.4002 | 962
352.84 K, 18987 kPa, w1 = 0.4002 | 962.5
352.84 K, 19995 kPa, w1 = 0.4002 | 962.9
352.84 K, 20986 kPa, w1 = 0.4002 | 963.3
352.85 K, 997 kPa, w1 = 0.2821 | 961.9
352.85 K, 2011 kPa, w1 = 0.2821 | 962.4
352.85 K, 2994 kPa, w1 = 0.2821 | 962.8
352.85 K, 4000 kPa, w1 = 0.2821 | 963.2
352.85 K, 5006 kPa, w1 = 0.2821 | 963.7
352.85 K, 6000 kPa, w1 = 0.2821 | 964.1
352.85 K, 6999 kPa, w1 = 0.2821 | 964.5
352.85 K, 7996 kPa, w1 = 0.2821 | 965
352.85 K, 8992 kPa, w1 = 0.2821 | 965.4
352.85 K, 9994 kPa, w1 = 0.2821 | 965.8
352.85 K, 10987 kPa, w1 = 0.2821 | 966.2
352.85 K, 12010 kPa, w1 = 0.2821 | 966.7

From the NIST ThermoML archive (doi:10.1021/je700406p)
